Reference: ChEMBL document CHEMBL1135834, “First non-ATP competitive glycogen synthase kinase 3 beta (GSK-3beta) inhibitors: thiadiazolidinones (TDZD) as potential drugs for the treatment of Alzheimer's disease” (J Med Chem, 2002)

Columns and labels:
[1] = target: Casein kinase II (Homo sapiens) (UniProt P67870+P68400+P19784); test: Specific activity against Casein kinase II (CK II); format: protein-complex assay; details: Bos taurus
[2] = target: Cyclin-dependent kinase 1/cyclin B (Homo sapiens, UniProt P06493); test: Inhibition of Cyclin dependent kinase 1-cyclinB; format: protein-complex assay
[3] = target: Cyclin-dependent kinase 1/cyclin B (Homo sapiens) (UniProt P06493+P14635+Q8WWL7+O95067); test: Specific activity against Cyclin dependent kinase 1-cyclin B; format: protein-complex assay
[4] = Inhibition of catalytic subunit of protein kinase A (PKA) from bovine heart; parameters: species or system Bos taurus
Bos taurus = species on record: Bos taurus; test: Specific activity against Protein kinase A (PKA) from bovine heart

## Cn1sc(=O)n(Cc2ccccc2)c1=O
[1]
  Specific activity (uM Pi/min/mg protein): 0.4
[2]
  IC50: > 100 µM
[3]
  Specific activity (nM Pi min-1 (mg of protein)-1): 0.4
[4]
  IC50: > 100 µM
Bos taurus
  Specific activity (nM Pi min-1 (mg of protein)-1): 4
